Test results from patent US8304447B2, “2-acylaminopropoanol-type glucosylceramide synthase inhibitors” (Genzyme Corporation, priority 2007, dated 2012).

Tested on: GM3
Assay: GM3 Elisa assay
Format: cell-based
Conditions: Table 3 (IC 50 Values); B16-FO cells; read-out: IC50_uM_Mean
Summary of the method: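 Cellular GM3 ELISA: fixed cells probed with monoclonal anti-GM3 (NeuAc), HRP-conjugated anti-IgM and fluorogenic Quantablu substrate, read at Ex 325/Em 420. Cells were B16-FO, treated 2 days after a 6 h attachment on collagen-coated wells.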

Structure (SMILES)	IC50
O=C(CCCOn1nnc2ccccc21)N[C@H](CN1CC[C@@H](F)C1)[C@H](O)c1ccc2c(c1)OCCO2 [Compound 651]	1 to 3 µM
Cc1noc(CCCCC(=O)NC(CN2CCCC2)C(O)c2ccc3c(c2)OCCO3)n1 (stereo not drawn) [Compound 652]	3 to 10 µM
O=C(CCCCCC(=O)c1ccc(F)cc1)N[C@H](CN1CC[C@H](O)C1)[C@H](O)c1ccc2c(c1)OCCO2 [Compound 653]	≤ 0.1 µM
O=C(CCCCC(=O)c1ccc(F)cc1)N[C@H](CN1CC[C@H](O)C1)[C@H](O)c1ccc2c(c1)OCCO2 [Compound 654]	1 to 3 µM
COc1ccc(C(=O)CCCCC(=O)N[C@H](CN2CC[C@H](O)C2)[C@H](O)c2ccc3c(c2)OCCO3)cc1 [Compound 655]	0.1 to 1 µM
O=C(CCCOc1ccc(F)cc1)N[C@H](CN1CC[C@H](O)C1)[C@H](O)c1ccc2c(c1)OCCO2 [Compound 656]	≤ 0.1 µM
O=C1CCC(=O)N1[C@H](CN1CCCC1)[C@H](O)c1ccc2c(c1)OCCO2 [Compound 670]	3 to 10 µM
COc1cc([C@@H](O)[C@@H](CN2CCCC2)NC(=O)CCCCCC(C)=O)cc(OC)c1OC [Compound 671]	3 to 10 µM
COc1ccc(OCCC(=O)N[C@@H](CN2CCCC2)[C@@H](O)c2ccc3c(c2)OCCO3)cc1 [Compound 674]	3 to 10 µM
COc1ccc(OCCC(=O)N[C@@H](CN2CCCC2)[C@H](O)c2ccc3c(c2)OCCO3)cc1 [Compound 675]	3 to 10 µM
COc1ccc(OCCC(=O)N[C@H](CN2CCCC2)[C@@H](O)c2ccc3c(c2)OCCO3)cc1 [Compound 676]	3 to 10 µM
CCCCCCCCCCCCCCCC(=O)N[C@H](CNCc1ccccc1)[C@H](O)c1ccc2c(c1)OCCO2 [Compound 678]	3 to 10 µM
CCCCCCCCCCCCCCCC(=O)N[C@H](CNCc1ccco1)[C@H](O)c1ccc2c(c1)OCCO2 [Compound 679]	3 to 10 µM
CCCCCCCCCCCCCCCC(=O)N[C@H](CNC(C)C)[C@H](O)c1ccc2c(c1)OCCO2 [Compound 680]	≤ 0.1 µM
CCCCCCCCCCCCCCCC(=O)N[C@H](CNC1CCCC1)[C@H](O)c1ccc2c(c1)OCCO2 [Compound 681]	1 to 3 µM
CCCCCCCCCCCCCCCC(=O)N[C@H](CN(C)Cc1ccccc1)[C@H](O)c1ccc2c(c1)OCCO2 [Compound 682]	3 to 10 µM
CCCCCCCCCCCCCCCC(=O)N[C@H](CN(C)Cc1ccco1)[C@H](O)c1ccc2c(c1)OCCO2 [Compound 683]	3 to 10 µM

Structure (SMILES)	IC50
CCCCCCCCCCCCCC(=O)N[C@H](CN(C)C(C)C)[C@H](O)c1ccc2c(c1)OCCO2 [Compound 684]	0.1 to 1 µM
CCCCCCCCCCCCCCCC(=O)N[C@H](CN(C)C1CCCC1)[C@@H](O)c1ccc2c(c1)OCCO2 [Compound 685]	3 to 10 µM
CCCCCCCC(=O)N[C@H](CCN1CCOCC1)[C@H](O)c1ccc2c(c1)OCCO2 [Compound 686]	3 to 10 µM
O=C(CCC(=O)N[C@H](CN1CCCC1)[C@H](O)c1ccc2c(c1)OCCO2)NC1CCCCC1 [Compound 689]	3 to 10 µM
O=C(CCCNC(=O)NC1CCCCC1)N[C@H](CN1CCCC1)[C@H](O)c1ccc2c(c1)OCCO2 [Compound 691]	3 to 10 µM
O=C(CCOc1ccnc2ccccc12)N[C@H](CN1CCCC1)[C@H](O)c1ccc2c(c1)OCCO2 [Compound 692]	0.1 to 1 µM
COc1ccc(OCCC(=O)N[C@H](CN2CCCC2)[C@H](O)c2ccc(-c3ccccc3)cc2)cc1 [Compound 695]	0.1 to 1 µM
COc1ccc(OCCC(=O)N[C@H](CN2CCCC2)[C@H](O)c2ccccc2OC)cc1 [Compound 700]	0.1 to 1 µM
COc1ccc(C(=O)CCCC(=O)N[C@H](CN2CCCC2)[C@H](O)c2ccccc2OC)cc1 [Compound 701]	1 to 3 µM
COc1ccc(OCCC(=O)N[C@H](CN2CCCC2)[C@H](O)c2ccc(OCc3ccccc3)cc2)cc1 [Compound 705]	≤ 0.1 µM
COc1ccc(OCCC(=O)N(CC(=O)c2ccc(OC)cc2)[C@H](CN2CCCC2)[C@H](O)c2ccc(O)cc2)cc1 [Compound 715]	3 to 10 µM
COc1ccc(OCCC(=O)N(Cc2ccccn2)[C@H](CN2CCCC2)[C@H](O)c2ccc(O)cc2)cc1 [Compound 716]	3 to 10 µM
COc1ccc(OCCC(=O)N(Cc2nc3ccccc3s2)[C@H](CN2CCCC2)[C@H](O)c2ccc(O)cc2)cc1 [Compound 717]	3 to 10 µM
COc1ccc(OCCC(=O)N(Cc2cccc(-c3noc(C)n3)c2)[C@H](CN2CCCC2)[C@H](O)c2ccc(O)cc2)cc1 [Compound 718]	3 to 10 µM
COc1ccc(OCCC(=O)N(Cc2cccc3ccncc23)[C@H](CN2CCCC2)[C@H](O)c2ccc(O)cc2)cc1 [Compound 719]	3 to 10 µM
COc1ccc(OCCC(=O)N(Cc2ccc(-c3noc(C)n3)cc2)[C@H](CN2CCCC2)[C@H](O)c2ccc(O)cc2)cc1 [Compound 720]	3 to 10 µM

Results, then the molecule that gave them:

IC50	Structure (SMILES)
0.1 to 1 µM	CCCCOc1ccc([C@@H](O)[C@@H](CN2CC[C@H](O)C2)NC(=O)CCCCC(=O)c2ccc(F)cc2)cc1 [Compound 657]
0.1 to 1 µM	CCCCOc1ccc([C@@H](O)[C@@H](CN2CC[C@@H](F)C2)NC(=O)CCCCC(=O)c2ccc(F)cc2)cc1 [Compound 658]
0.1 to 1 µM	CCCCOc1ccc([C@@H](O)[C@@H](CN2CC[C@@H](F)C2)NC(=O)CCCCCOCCF)cc1 [Compound 660]
1 to 3 µM	CCCCOc1ccc([C@@H](O)[C@@H](CN2CC[C@H](O)C2)NC(=O)CCCCCOCCF)cc1 [Compound 661]
0.1 to 1 µM	CCCCOc1ccc([C@@H](O)[C@@H](CN2CC[C@@H](F)C2)NC(=O)CCCCCOC2CCC2)cc1 [Compound 662]
0.1 to 1 µM	CCCCC(=O)CCCCCCC(=O)N[C@H](CN1CCCC1)[C@H](O)c1ccc2c(c1)OCCO2 [Compound 663]
1 to 3 µM	COc1ccc([C@@H](O)[C@@H](CN2CCCC2)NC(=O)CCCCCC(C)=O)cc1 [Compound 664]
3 to 10 µM	CC(=O)CCCCCC(=O)N[C@H](CN1CCCC1)[C@H](O)c1ccc(OC(F)(F)F)cc1 [Compound 665]
0.1 to 1 µM	COc1ccc(C(=O)CCCCCC(=O)N[C@H](CN2CCCC2)[C@H](O)c2ccc(OC(F)(F)F)cc2)cc1 [Compound 666]
0.1 to 1 µM	CCCCCCCC(=O)N[C@H](CN1CCCC1)[C@H](O)c1ccc(OC(F)(F)F)cc1 [Compound 667]
1 to 3 µM	COc1ccc(C(=O)CCCCCC(=O)N[C@H](CN2CCCC2)[C@H](O)c2cc(OC)c(OC)c(OC)c2)cc1 [Compound 668]
3 to 10 µM	CCCCCCCC(=O)N[C@H](CN1CCCC1)[C@H](O)c1cc(OC)c(OC)c(OC)c1 [Compound 669]
3 to 10 µM	CCCCCCCC(=O)N[C@@H](CN1CCCC1)[C@H](O)c1ccc2c(c1)OCCO2 [Compound 672]
3 to 10 µM	CCCCCCCC(=O)N[C@H](CN1CCCC1)[C@@H](O)c1ccc2c(c1)OCCO2 [Compound 673]
3 to 10 µM	CCCCCCCC(=O)N[C@@H](CN1CCCC1)[C@@H](O)c1ccc2c(c1)OCCO2 [Compound 677]
3 to 10 µM	CCCCCCCC(=O)N[C@H](CCN1CCCC1)[C@H](O)c1ccc2c(c1)OCCO2 [Compound 687]
3 to 10 µM	COc1ccc(C(=O)CCCCCC(=O)N[C@H](CCN2CCCC2)[C@H](O)c2ccc3c(c2)OCCO3)cc1 [Compound 688]
≤ 0.1 µM	CC(C)Oc1ccc(C(=O)NCCCCCC(=O)N[C@H](CN2CCCC2)[C@H](O)c2ccc3c(c2)OCCO3)cc1 [Compound 690]

IC50	Structure (SMILES)
≤ 0.1 µM	COc1ccc(C(=O)CCCCCC(=O)N[C@H](CN2CCCC2)[C@H](O)c2ccc(-c3ccccc3)cc2)cc1 [Compound 693]
0.1 to 1 µM	COc1ccc(C(=O)CCCCC(=O)N[C@H](CN2CCCC2)[C@H](O)c2ccc(-c3ccccc3)cc2)cc1 [Compound 694]
1 to 3 µM	COc1ccc(C(=O)CCCC(=O)N[C@H](CN2CCCC2)[C@H](O)c2ccc(-c3ccccc3)cc2)cc1 [Compound 696]
0.1 to 1 µM	CCCCCCCC(=O)N[C@H](CN1CCCC1)[C@H](O)c1ccc(-c2ccccc2)cc1 [Compound 697]
0.1 to 1 µM	COc1ccc(C(=O)CCCCC(=O)N[C@H](CN2CCCC2)[C@H](O)c2ccccc2OC)cc1 [Compound 698]
≤ 0.1 µM	COc1ccc(C(=O)CCCCCC(=O)N[C@H](CN2CCCC2)[C@H](O)c2ccccc2OC)cc1 [Compound 699]
≤ 0.1 µM	O=C(Cc1ccc(OC(F)(F)F)cc1)N[C@H](CN1CCCC1)[C@H](O)c1ccc(OCc2ccccc2)cc1 [Compound 702]
≤ 0.1 µM	CCCCCCCC(=O)N[C@H](CN1CCCC1)[C@H](O)c1ccc(OCc2ccccc2)cc1 [Compound 703]
≤ 0.1 µM	COc1ccc(C(=O)CCCCCC(=O)N[C@H](CN2CCCC2)[C@H](O)c2ccc(OCc3ccccc3)cc2)cc1 [Compound 704]
≤ 0.1 µM	COc1ccc(C(=O)CCCCC(=O)N[C@H](CN2CCCC2)[C@H](O)c2ccc(OCc3ccccc3)cc2)cc1 [Compound 706]
≤ 0.1 µM	COc1ccc(C(=O)CCCCCC(=O)N[C@H](CN2CCCC2)[C@H](O)c2ccc(OC)c(Cl)c2)cc1 [Compound 707]
≤ 0.1 µM	CCCCCCCCC(=O)N[C@H](CN1CCCC1)[C@H](O)c1ccc(OC)c(Cl)c1 [Compound 708]
≤ 0.1 µM	COc1ccc(C(=O)CCCCC(=O)N[C@H](CN2CCCC2)[C@H](O)c2ccc(OC)c(Cl)c2)cc1 [Compound 709]
≤ 0.1 µM	COc1ccc([C@@H](O)[C@@H](CN2CCCC2)NC(=O)Cc2ccc(OC(F)(F)F)cc2)cc1Cl [Compound 710]
≤ 0.1 µM	COc1ccc(OCCC(=O)N[C@H](CN2CCCC2)[C@H](O)c2ccc(OC)c(Cl)c2)cc1 [Compound 711]
0.1 to 1 µM	COc1ccc(OCCC(=O)N[C@H](CN2CCCC2)[C@H](O)c2ccc(O)cc2)cc1 [Compound 712]
0.1 to 1 µM	COCCOCCOc1ccc([C@@H](O)[C@@H](CN2CCCC2)NC(=O)CCOc2ccc(OC)cc2)cc1 [Compound 713]
3 to 10 µM	COCCOc1ccc([C@@H](O)[C@@H](CN2CCCC2)NC(=O)CCOc2ccc(OC)cc2)cc1 [Compound 714]
